Experimental data from patent US7253138B2, “Corrosion and gas hydrate inhibitors having improved water solubility and increased biodegradability” (Clariant Produkte (Deutschland) GmbH, priority 2003, dated 2007).

Experiments:
[1] = Shell wheel test (corrosion inhibition); conditions: salt water/petroleum mixture (9:1.5% NaCl solution, pH 3.5 with acetic acid), 40 rpm, 70° C., 24 hours; 50 ppm of a 40% solution of the inhibitor; from mass reduction vs blank
Procedure: The compounds according to the invention were tested as corrosion inhibitors in the Shell wheel test. Coupons of carbon steel (DIN 1.1203 having 15 cm^2 surface area) were immersed in a salt water/petroleum mixture (9:1.5% NaCl solution, adjusted to pH 3.5 using acetic acid) and subjected to this medium at a rotation rate of 40 rpm at 70° C. for 24 hours. The dosage of the inhibitor was 50 ppm of a 40% solution of the inhibitor. The protection values were calculated from the mass reduction of the coupons, based on a blank value.
In the table which follows, “comparison” refers to a commercial soya fatty acid amidopropyl-N,N-dimethylammonium carboxymethyl betaine described by EP-B-0 446 616 (prior art corrosion inhibitor).

[2] = LPR test (corrosion inhibition, test conditions similar to ASTM D 2776)
Procedure: The products were also tested in the LPR test (test conditions similar to ASTM D 2776).

Agitation foam method = type: physicochemical; conditions: 50 ml of a 3% aqueous solution in demineralized water, agitated 20 times within 10 sec in closed 100 ml cylinder
Procedure: The foam properties were tested with the agitation foam method. To this end, 50 ml of a 3% aqueous solution of the appropriate corrosion inhibitor in demineralized water were agitated in a closed 100 ml measuring cylinder 20 times within 10 sec. On completion of the agitation, the foaming behavior was assessed using the total volume of the solution (foam height) and the foam decomposition time (time until attainment of the starting volume of 50 ml).

Row | Substance | ø Protection % [1] [%] | Protection after 10 min [2] [%] | Protection after 30 min [2] [%] | Protection after 60 min [2] [%] | Foaming behavior (Agitation foam method)
1 | Dodecenyl-/tetradecenylsuccinimido-N,N-dimethylpropylammonium N-methylcarboxyl betaine [Betaine from example 7] | 84.9 | 72.5 | 92.0 | 98.1 | 
2 | Pentapropylenesuccinimido-N,N-dimethylpropylammonium N-methylcarboxyl betaine [Betaine from example 9] | 90.4 | 77.9 | 94.0 | 99.8 | Weakly foaming
3 | Polyisobutenylsuccinimido-N,N-dimethylpropylammonium N-methyl-carboxyl betaine [Betaine from example 10] | 90.1 | 79.1 | 92.3 | 99.2 | Weakly foaming
4 | Polyisobutenylsuccinimido-N,N-dimethylpropylammonium N-methyl-carboxyl betaine [Betaine from example 11] | 80.6 | 61.9 | 70.6 | 80.6 | Weakly foaming
5 | Polyisobutenylsuccinimido-N,N-dimethylpropylammonium N-methyl-carboxyl betaine [Betaine from example 12] | 82.7 | 70.0 | 79.4 | 86.3 | 
6 | Tetrapropylenesuccinimido-N,N-dimethylpropylammonium N-methylcarboxyl betaine [Betaine from example 8] | 84.0 | 74.0 | 81.3 | 84.9 | 
7 | soya fatty acid amidopropyl-N,N-dimethylammonium carboxymethyl betaine [Comparison, reference compound] | 75.4 | 45.9 | 59.2 | 64.2 | Strongly foaming
